Assay results: patent US20250277187A1, “A METHOD FOR PRODUCING INDUCED STEROIDOGENIC CELLS AND USE THEREOF IN CELL THERAPY” (TECHNISCHE UNIVERSITAET DRESDEN, priority 2021, published 2025)

Tested on: cells infected with the SF1 gene or the SF1+MC2R+MRAP genes
Assay: ACTH stimulation of hiSCs: cortisol and aldosterone secretion
Format: cell-based, human
Details: ACTH 0 nM, 10 nM

**Q.** What does the source list for “adrenocorticotropic hormone (SYSMEHFRWGKPVGKKRRPVKVYPNGAEDESAEAFPLEF; Corticotropin; UniProt P01189 138-176, looked up) [ACTH, hormone secreted by the anterior pituitary gland, used to stimulate the cells]”?
**A.** production/secretion of cortisol (1 uM (FIG. 15B)): increasing with administration of increasing ACTH dosage; production/secretion of aldosterone (1 uM (FIG. 15C)): increasing with administration of increasing ACTH dosage
